Where no end group is shown, it is not given here.

For one test, the target named is TNF-α protein (Homo sapiens, UniProt P01375). The test can be described thus: ELISA affinity assay of FITC-labeled peptide to coated TNF-α. It counts as binding. To be noted: FIG. 1 / FIG. 2. The method, then:
A 96-well ELISA plate was coated with 2 μg/ml TNF-α solution at 4° C. overnight. Different concentrations of peptide 632 labeled with FITC were added to each well and incubated for 2 h. After incubation, HRP-conjugated anti-FITC monoclonal antibody was added, incubated for 1 h, and then ABTS coloring solution was added. After color development for 1 h, the OD value at 410 nm was measured using a microplate reader, and GraphPad Prism 5 was used for plotting and analysis.
A 96-well ELISA plate was coated with 2 μg/ml TNF-α protein at 4° C. overnight. After blocking with BSA, different concentrations of peptide 632 labeled with FITC were added to each well and incubated for 2 h. After incubation, HRP-conjugated anti-FITC monoclonal antibody was added, incubated for 1 h, and then ABTS coloring solution was added. After color development for 1 h, the OD value at 410 nm was measured using a microplate reader, and GraphPad Prism 5 was used for plotting and analysis.

The test system of test [1] is p-xylene induced ear swelling in Kunming mice. The test can be described thus: p-xylene induced mouse ear swelling model of inflammation. The settings on record: male Kunming mice, subcutaneous injection for 3 consecutive days, p-xylene on right auricle, 1 h, versus control group. The class given is in vivo. The method, then: The experimental animals were divided into three groups: blank group, a non-related peptide control group and an antagonist peptide (peptide 632) group. Using mice as an example, male Kunming mice of 6 weeks old were injected subcutaneously at right abdomen for 3 consecutive days. After the last injection, mice of each group were smeared with p-xylene on both sides of the right auricle. 1 h after the treatment, mice were sacrificed, and the left and right ears of the mice were cut. An ear swelling puncher was used to cut down ears to obtain ear pieces. Swelling degree of mouse ear were obtained by subtracting the weighs of left ear piece from the weighs of right ear piece.
The experimental animals were divided into three groups: blank group, a non-related peptide control group and an antagonist peptide (peptide 632) group. Male Kunming mice of 6 weeks old were injected subcutaneously with peptides at right abdomen for 3 consecutive days. 30 min after the last injection, mice of each group were smeared with p-xylene (0.03 ml/per mouse) on both sides of the right auricle to induce inflammation, and the left auricle was served as normal control. 1 h after the inflammation, animals were sacrificed, and the ears of mice were completely cut and marked to distinguish the left and right ears of the same mouse. […] The ear pieces were weighed together with papers, and the results were recorded. […]

TNF-α protein, sequence (P01375 77-233 limits assumed, species assumed): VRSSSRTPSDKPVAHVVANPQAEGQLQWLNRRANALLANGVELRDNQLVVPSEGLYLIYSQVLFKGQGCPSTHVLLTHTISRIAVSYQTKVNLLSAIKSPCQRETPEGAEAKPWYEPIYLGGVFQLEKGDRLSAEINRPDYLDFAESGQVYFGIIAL

In the case of KASGSPSGFWPS [peptide 636], in the test with TNF-α protein, the “binding affinity for TNF-α protein (in words)” value is given as “high binding affinity”.
Consider HYIDFRW [peptide 632, HYIDFRW], for which the “binding affinity for TNF-α protein (in words)” value at TNF-α protein is on record as “high binding affinity”. In addition, the “swelling degree of mouse ear” value is reported as “significantly lower than those of the control group” in test [1] and “significantly inhibit the swelling of the mouse ear” in test [1] (listed as antagonist peptide).

(Values after patent publication US12129278B2, “High-affinity peptide for tumor necrosis factor alpha and application thereof” (priority 2017, dated 2024).)
